Results as given in patent US20110091728A1, “Felbamate With Improved Bulk Density” (priority 2007, published 2011).

Columns and labels:
[1] = Bulk density determination of felbamate (10 ml graduated cylinder, 50 taps); format: physicochemical
[2] = as above; format: physicochemical; remark: listed apart in the source
From the text: One important characteristic is tapped bulk density, or simply tapped (or tap) density, that is the maximum packing density of a powder (or blend of powders) achieved under the influence of well defined, externally applied forces (see, http://en.wikipedia.org/wiki/Bulk_density). The minimum packed volume thus achieved depends on a number of factors including particle size distribution, true density, particle shape and cohesiveness due to surface forces including moisture. Therefore, the tap density of a material can be used to predict both its flow properties and its compressibility. These two parameters are important in the overall tabletting process, which requires that loose powders be compacted into a durable solid form with the correct mechanical strength, porosity and dissolution characteristics. These parameters are also important in the formation of oral suspensions, which ideally contain particles of high bulk density, enabling even dispersion of the particles throughout the suspension after shaking and before consumption.
Felbamate (1.211 gm) purified by the above process (Example 3) was poured into a 10 ml graduated cylinder. The untapped volume of felbamate was 3.5 ml, resulting in an untapped bulk density of 0.35 gm/ml which was greater than the untapped bulk density of felbamate prepared by other methods (see below, Examples 9 and 10). The graduated cylinder was tapped until the felbamate (50 taps) no longer settled. The volume of felbamate after tapping was 2.2 ml, resulting in a tapped bulk density of 0.55 gm/ml.
Felbamate (0.972 gm) synthesized by the process disclosed in WO 94/06737 was poured into a 10 ml graduated cylinder. The untapped volume of felbamate was 5.1 ml, resulting in an untapped bulk density of 0.19 gm/ml. The graduated cylinder was tapped until the felbamate (50 taps) no longer settled. The volume of felbamate after tapping was 3.2 ml, resulting in a tapped bulk density of 0.30 gm/ml.
Felbamate (2 gm) synthesized by the process disclosed in U.S. Pat. No. 4,868,327 was purified by adding to 20 ml of methanol, heating the methanol to reflux to obtain a clear solution, cooling the solution to room temperature over three hours with stirring, and isolating the felbamate by filtration and drying under vacuum at 50° C. Felbamate (0.927 gm) purified by this process was poured into a 10 ml graduated cylinder. The untapped volume of felbamate was 6.5 ml, resulting in an untapped bulk density of 0.14 gm/ml. The graduated cylinder was tapped until the felbamate (50 taps) no longer settled. The volume of felbamate after tapping was 2.9 ml, resulting in a tapped bulk density of 0.32 gm/ml.

- tapped bulk density ([1]; felbamate purified from acetonitrile-water (Example 4)): 0.55 gm/ml
- tapped bulk density ([1]; felbamate purified from isopropanol-water (Example 6)): 0.54 gm/ml
- tapped bulk density ([1]; felbamate purified from water (Example 7)): 0.35 gm/ml
- untapped bulk density ([2]; Table I, U.S. Pat. No. 4,868,327): 0.14 g/mL
- tapped bulk density ([2]; Table I, U.S. Pat. No. 4,868,327, 50 taps): 0.32 g/mL
- untapped bulk density ([2]; Table I, WO 94/06737): 0.19 g/mL
- tapped bulk density ([2]; Table I, WO 94/06737, 50 taps): 0.3 g/mL
- untapped bulk density ([2]; Table I, purification process as disclosed in Example 3): 0.35 g/mL
- tapped bulk density ([2]; Table I, purification process as disclosed in Example 3, 50 taps): 0.55 g/mL
- untapped bulk density ([2]; felbamate by process of U.S. Pat. No. 4,868,327, recrystallised from methanol (Example 10)): 0.14 gm/ml
- tapped bulk density ([2]; felbamate by process of U.S. Pat. No. 4,868,327, recrystallised from methanol, 50 taps (Example 10)): 0.32 gm/ml
- untapped bulk density ([2]; felbamate purified by process of Example 3, 1.211 gm in 10 ml cylinder (Example 8)): 0.35 gm/ml
- tapped bulk density ([2]; felbamate purified by process of Example 3, 50 taps (Example 8)): 0.55 gm/ml
- tapped bulk density ([2]; felbamate purified from methanol-water (Example 3)): 0.5 gm/ml
- tapped bulk density ([2]; felbamate purified from tetrahydrofuran-water (Example 5)): 0.4 gm/ml
- untapped bulk density ([2]; felbamate synthesized by process of WO 94/06737 (Example 9)): 0.19 gm/ml
- tapped bulk density ([2]; felbamate synthesized by process of WO 94/06737, 50 taps (Example 9)): 0.30 gm/ml
Compound: NC(=O)OCC(COC(N)=O)c1ccccc1 [Felbamate, 2-phenyl-1,3-propanediol dicarbamate]
